How the values were obtained:
[1] = target: T1, BTK (Homo sapiens, UniProt Q06187); test: pBTK test in ISM-like (+SCF) human mast cells; assay type: cell-based; set-up: endogenous in cells; host or cells: Primary human mast cells differentiated from bone marrow CD34+ cells of healthy donors, cultured with SCF; settings: six healthy donors, treated two hours
Procedure: Human mast cells were derived from bone marrow CD34+ cells from six healthy donors for up to eight weeks by culturing CD34+ cells in StemSpan SFEM II (Stem Cell Technologies) supplemented with stem cell factor (SCF; 100 ng/mL; R&D System), IL-6 (R&D Systems), IL-3 (R&D Systems) and 1% penicillin/streptomycin (P/S; Gibco) for the first 10 days and in StemSpan SFEM II supplemented with SCF and IL-6 and 1% P/S for the remaining time in culture. […] Supernatant was collected and histamine levels were measured using a Histamine ELISA kit (Eagle Biosciences). […] Percent of activated mast cells was calculated as number of activated mast cells over the total number of mast cells.
Human mast cells were differentiated from bone marrow CD34+ cells from six healthy donors, cultured and sensitized as set forth in Example 4. […] The median fluorescence intensity of phosphorylated BTK was measured. CD63 and histamine levels in these cells were measured and percent activated mast cells were calculated as set forth in Example 4. The percent of stimulated control for pBTK, activated mast cells (CD63+) and histamine levels was calculated. […]

[2] = test system: IL-8, MCP-1, GM-CSF and IL-13; test: MRGPRX2-mediated cytokine production in ISM-like mast cells; assay type: cell-based, human
Procedure: (§1) Human mast cells were differentiated from bone marrow CD34+ cells from four healthy donors and were cultured in the presence of SCF (100 ng/mL) to mimic mast cells in ISM and treated with Compound 128 for two hours prior to stimulation. Mas-related G protein-coupled receptor (MRGPRX2) agonists, Compound 48/80 (C48/80; a product of N-methyl-p-methoxyphenethylamine with formaldehyde) or Substance P (SP) were used to activate the MRGPRX2 pathway. For pBTK test, cells were stimulated with C48/80 (10 μg/mL) for ten minutes at 37° C. and cells were stained. The median fluorescence intensity of phosphorylated BTK was measured. The fold change over unstimulated control for pBTK was calculated. For cytokine test, cells were stimulated with C48/80 (10 μg/mL) or SP (30 μM) for four hours at 37° C. Supernatant was collected and cytokine levels were measured using the BD Cytometric Bead Array (CBA) human soluble protein master buffer kit (Becton Dickinson) and BD CBA human soluble protein flex sets for IL-8, MCP-1, GM-CSF and IL-13 (Becton Dickinson). Cytokine levels were measured and normalized to percent of control, with 0% representing the level of the unstimulated control.

[3] = test system: mast cells; test: Monomeric IgE-mediated degranulation and cytokine production in mast cells; assay type: cell-based, human; settings: mast cells from a healthy donor, treated 2 hours, myeloma IgE with SCF
Procedure: Mast cells from a healthy donor were starved of SCF for 18 hours and treated with Compound 128 for 2 hours. Mast cells were stimulated with SCF (100 ng/mL) or myeloma IgE (3 μg/mL; Millipore Sigma) alone or in combination for 30 minutes (CD63 and Histamine) or 24 hours (cytokine production), respectively. For the histamine and cytokine test, supernatant was collected and the levels of histamine and cytokines were measured as set forth in Example 4 for histamine and Example 7 for cytokines. For the CD63 test, the cells were stained for CD63, data was acquired on a flow cytometer and percent activated mast cells calculated as set forth in Example 4. […] The monomeric IgE contribution to degranulation and cytokine production is inhibited by Compound 128.

[4] = target: T1, BTK; test: MRGPRX2-induced BTK phosphorylation in ISM-like mast cells; assay type: cell-based; set-up: endogenous in cells; host or cells: Primary human mast cells differentiated from bone marrow CD34+ cells of healthy donors, cultured with SCF; settings: 0.1 μM; C48/80 stimulation
Procedure: as §1

[5] = test system: mast cells; test: Return of degranulation after Compound 128 exposure and washout (FIG. 18); assay type: cell-based; settings: flow cytometry
Text: FIGS. 18A-D show return of degranulation after Compound 128 exposure.

T1 sequence (Q06187 whole entry): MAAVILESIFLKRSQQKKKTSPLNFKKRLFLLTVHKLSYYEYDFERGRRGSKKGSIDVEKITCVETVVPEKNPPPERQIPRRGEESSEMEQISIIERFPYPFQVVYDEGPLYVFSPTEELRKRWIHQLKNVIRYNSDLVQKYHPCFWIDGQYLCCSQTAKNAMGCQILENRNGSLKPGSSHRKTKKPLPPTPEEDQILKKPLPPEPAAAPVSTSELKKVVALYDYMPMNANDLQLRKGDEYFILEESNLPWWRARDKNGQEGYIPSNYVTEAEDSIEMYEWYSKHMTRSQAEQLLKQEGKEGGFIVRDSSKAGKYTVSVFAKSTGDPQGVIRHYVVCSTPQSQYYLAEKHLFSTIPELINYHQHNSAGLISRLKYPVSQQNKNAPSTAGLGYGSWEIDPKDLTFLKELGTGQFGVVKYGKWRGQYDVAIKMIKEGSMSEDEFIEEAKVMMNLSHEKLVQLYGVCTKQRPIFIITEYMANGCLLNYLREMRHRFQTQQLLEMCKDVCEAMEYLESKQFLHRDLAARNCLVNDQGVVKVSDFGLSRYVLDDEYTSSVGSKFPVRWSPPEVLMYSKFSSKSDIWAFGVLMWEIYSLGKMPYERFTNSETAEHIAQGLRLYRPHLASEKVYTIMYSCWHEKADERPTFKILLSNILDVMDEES

C=CC(=O)N1CCC(F)(CNc2ncnc(N)c2-c2ccc(Oc3ccccc3)cc2)CC1 [Compound 128, 1-(4-(((6-amino-5-(4-phenoxyphenyl)pyrimidin-4-yl)amino)methyl)-4-fluoropiperidin-1-yl)prop-2-en-1-one]
inhibition of IgE-mediated BTK phosphorylation [1]: potently inhibits | MRGPRX2-mediated cytokine production ([2]; 0.1 μM): partially inhibited | MRGPRX2-mediated cytokine production ([2]; 0.5 and 1 μM): inhibition of cytokine production was increased | C48/80-mediated cytokine production ([2]; C48/80 (10 μg/mL) stimulation): partial inhibition | MRGPRX2-mediated cytokine production in ISM-like mast cells (figure legend) ([2]; FIGS. 15A-C): inhibits | SP-mediated cytokine production ([2]; Substance P (30 μM) stimulation): fully inhibited | monomeric IgE contribution to degranulation and cytokine production [3]: inhibited | MRGPRX2-induced BTK phosphorylation [4]: inhibited | time to restoration of degranulation after inhibition [5]: ≤ 24 h
